System: PROVE-IT patients
Assay: PROVE-IT (PROVE IT-TIMI 22) genetic study: high-dose atorvastatin vs standard-dose pravastatin, death or major cardiovascular events by KIF6 719Arg carrier status
Type: in vivo, human
Experimental: Patients were followed for 18 to 36 months, with an average follow-up of 24 months.
Of the 1,724 patients who met the criteria listed above, 1344 (78.0%) were male. […] This study was approved by institutional review boards of the Brigham and Women's Hospital and all participating centers.
KIF6 genotypes were determined using allele—specific real-time PCR as previously described. Cox proportional hazard models (Wald tests) were used to assess the effect of atorvastatin-treatment on incident CHD in the KIF6 719Arg carriers and noncarriers. Continuous variables tested were age, baseline LDL-C, and baseline HDL-C levels. Categorical variables tested were smoking (current versus non-current), hypertension, and baseline diabetes. All reported p values are two-sided.

Q: Which results are given for `CC(C)c1c(C(=O)Nc2ccccc2)c(-c2ccccc2)c(-c2ccc(F)cc2)n1CC[C@@H](O)C[C@@H](O)CC(=O)O` [Atorvastatin, atorvastatin]?
A: HR, Model 1 (CHD, atorvastatin vs pravastatin) (ArgArg + ArgTrp (carriers), adjusted for sex, age, smoking, hypertension, diabetes, LDL-C, HDL-C, antibiotic): 0.56; HR, Unadjusted (CHD, atorvastatin vs pravastatin) (ArgArg + ArgTrp, 80 mg atorvastatin per day vs 40 mg pravastatin per day (ref)): 0.57; On-trial CHD (ArgArg + ArgTrp, totals 509 (atorvastatin), 502 (pravastatin)): 76 Number of patients; HR, Model 1 (CHD, atorvastatin vs pravastatin) (TrpTrp (noncarriers), adjusted): 0.97; HR, Unadjusted (CHD, atorvastatin vs pravastatin) (TrpTrp (noncarriers), pravastatin = ref): 0.99; On-trial CHD (TrpTrp, totals 359 (atorvastatin), 352 (pravastatin)): 81 Number of patients; unadjusted hazard ratio at 30 days (carriers of the KIF6 719Arg allele, 30 days after randomization, atorvastatin vs pravastatin): 0.18; reduction of relative risk of coronary events (carriers, high-dose atorvastatin vs standard-dose pravastatin): 44%; benefit of intensive therapy compared with moderate therapy (noncarriers, at any time point): no significant benefit

— US8148070B2, “Genetic polymorphisms associated with coronary events and drug response, methods of detection and uses thereof” (Celera Corporation, priority 2007, dated 2012)
